These are literature values, as cited in US20090263467A1, “COMBINATION DRUG THERAPY USING ORALLY DISSOLVING FILM OR ORALLY DISINTEGRATING TABLET DOSAGE FORMS TO TREAT DRY MOUTH AILMENTS” (priority 2008, published 2009).

The conditions of data set [1]: neutral pH.

`CC[C@@H]1C(=O)OC[C@@H]1Cc1cncn1C` [Pilocarpine]: the half-life is 45.6 min. The permeability result in data set [1] is given as “higher”.
